From PubChem BioAssay (NCI)
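Cultured in 96-well plates, cells were exposed to test compound for 48 hours across five concentrations. The concentration for full growth arrest is given as TGI.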

Legend:
Test in all cases: NCI tumour cell line growth inhibition, 48 h
SK-MEL-28 melanoma = tested on: SK-MEL-28 melanoma
OVCAR-4 ovarian = tested on: OVCAR-4 ovarian
OVCAR-5 ovarian = tested on: OVCAR-5 ovarian
ACHN renal = tested on: ACHN renal
SK-MEL-2 melanoma = tested on: SK-MEL-2 melanoma
HCT-15 colon = tested on: HCT-15 colon
SF-539 CNS = tested on: SF-539 CNS
UACC-62 melanoma = tested on: UACC-62 melanoma
A498 renal = tested on: A498 renal
IGROV1 ovarian = tested on: IGROV1 ovarian
NCI-H226 lung = tested on: NCI-H226 lung
HS 578T breast = tested on: HS 578T breast
RPMI-8226 leukemia = tested on: RPMI-8226 leukemia
COLO 205 colon = tested on: COLO 205 colon
HOP-62 NSCLC = tested on: HOP-62 NSCLC
NCI/ADR-RES ovarian = tested on: NCI/ADR-RES ovarian
SNB-75 CNS = tested on: SNB-75 CNS
SR leukemia = tested on: SR leukemia
NCI-H460 lung = tested on: NCI-H460 lung
T-47D breast = tested on: T-47D breast

SMILES	TGI (SK-MEL-28 melanoma) [µM]	TGI (OVCAR-4 ovarian) [µM]	TGI (OVCAR-5 ovarian) [µM]	TGI (ACHN renal) [µM]	TGI (SK-MEL-2 melanoma) [µM]	TGI (HCT-15 colon) [µM]	TGI (SF-539 CNS) [µM]	TGI (UACC-62 melanoma) [µM]	TGI (A498 renal) [µM]	TGI (IGROV1 ovarian) [µM]	TGI (NCI-H226 lung) [µM]	TGI (HS 578T breast) [µM]	TGI (RPMI-8226 leukemia) [µM]	TGI (COLO 205 colon) [µM]	TGI (HOP-62 NSCLC) [µM]	TGI (NCI/ADR-RES ovarian) [µM]	TGI (SNB-75 CNS) [µM]	TGI (SR leukemia) [µM]	TGI (NCI-H460 lung) [µM]	TGI (T-47D breast) [µM]
O=C1C=C2CC[C@H]3[C@@H]4CC[C@H](OC(=O)c5cccc6cc7ccccc7nc56)[C@H]4CC[C@@H]3[C@H]2CC1	> 100	> 100	> 100	> 100	> 100	> 100	> 100	> 100	> 100	> 100	> 100	> 100	> 100	> 100	> 100	> 100	> 100			
CC12C(=O)OC(=O)C1(C)C1C=CC2O1 (stereo not drawn)	> 100		> 100	> 100	> 100	> 100	> 100	> 100	> 100	> 100	48.1	> 100	> 100	> 100		> 100	> 100	> 100	> 100	
CN(C)Cc1cc(/C=C/C(=O)c2ccc(Cl)c(Cl)c2)cc(CN(C)C)c1O	26.9		28.3	25.4	31		20.3	27.4	32.4	25.3			36.8	32.5	38	50.6	21.1		22.7	24.1
CCCc1c(C(=O)OCC)[nH]c(C(=O)CCC(=O)c2[nH]c(C(=O)OCC)c(CCC)c2C(=O)OCC)c1C(=O)OCC	> 100	> 100	> 100	> 100	> 100	> 100	> 100	> 100	> 100	> 100	> 100		> 100	> 100			62.5	> 100	> 100	
COC1=CC(=O)C2C(C1=O)C(c1ccc(OC)c(OC)c1)[C@H]2C (stereo partly drawn)	39.3	30.6	> 100	33.4	> 100	34.5	> 100	> 100	> 100	> 100	> 100		38.4	36.9	> 100		> 100		> 100	
CN(C)c1nc(=NCc2cccnc2)ss1	> 10	> 10				> 10		> 10		> 10			> 10	> 10	> 10		> 10	> 10		> 10
CCN(CC)CCCNc1ncc(C)c2c1c1ccc3c(O)cccc3c1n2C	17.5	3.45	11.8	12.8	33.8		14.9	49.2	32	5.97	26.2		> 23.9	17.5	2.58	> 100	6.74	1.78		49.3
O=c1c2cc(S(=O)(=O)Nc3c(Cl)cccc3Cl)ccc2ncn1NS(=O)(=O)c1ccc2ccccc2c1	> 62.5	> 62.5	> 62.5	> 62.5	> 62.5	> 62.5	> 62.5	> 62.5		> 62.5	35.1	> 62.5	> 62.5	> 62.5	> 62.5	> 62.5	> 62.5	> 62.5	> 62.5	
CCOC(=O)c1cc(C#N)[nH]c1-c1ccsc1	> 100	> 100	> 100	> 100	> 100	> 100	77.1	> 100	> 100	> 100	> 100	55.8	65.6	> 100	> 100	94.9	97.4	35.5	> 100	
CC(C)(C)C(=O)/C=C/c1cccc(Oc2ccccc2)c1	34.1		32.8	28.5	27.6	40.4	40.2		37.1	78	33.4		22.5		> 100		64.6	> 100	32.5	
COC(=O)N/N=C(/Cc1occc(=O)c1O)C(=O)Nc1ccc([N+](=O)[O-])cc1[N+](=O)[O-]	> 100	> 100	> 100	> 100	> 100	> 100	> 100	> 100	> 100	> 100	> 100		> 100	> 100	> 100		> 100	> 100	> 100	
O=C1OC(CS(=O)(=O)c2ccccc2)CC1O (stereo not drawn)	> 100	> 100	> 100	> 100	> 100	> 100	> 100	> 100	> 100	> 100	> 100		> 100	> 100	> 100	> 100		> 100	> 100	
C/C(=N/NC(N)=S)C(CN(C)C)C(C1=C(O)c2ccccc2OC1)c1ccccc1 (stereo not drawn)	> 100	> 100	> 100	> 100	> 100	> 100	> 100	> 100	> 100	> 100	> 100		> 100	> 100	> 100		> 100	> 100	> 100	
COc1ccc(C2S/C(=C\c3ccccc3)C(=O)N2NC(=O)Cc2ccccc2)cc1 (stereo not drawn)	> 100	> 100	> 100	> 100	> 100	> 100	> 100	> 100	> 100	> 100	> 100		> 100	> 100	> 100		> 100	> 100	> 100	
